Laboratory results taken from US11510932B2, “Prophylactic and therapeutic treatment of alzheimer's disease using phytic acid and phytate to reduce amyloid beta plaque and tau protein” (priority 2009, dated 2022).
pEC50: −log10 of the molar value.

Assays:
[1] = system: NGF-differentiated PC12 cells; settings: 10 μM; cited from earlier work
MC65 cells [2] = test: APP CTF-induced neurotoxicity (cell viability) in MC65 cells; settings: for attenuation of APP CTF-induced neurotoxicity (active/inactive): in vitro challenge test
MC65 cells [3] = test: Oxidative stress associated with APP CTF expression, hydrogen peroxide in cell media; type: cell-based, human; settings: 100 μM
Procedure: In vitro studies were conducted in MC65 cells, an established human neuroblastoma line that conditionally expresses the first 17 amino-terminal residues and the 99 carboxy-terminal residues of amyloid precursor protein (APP CTF). Detectable APP CTF expression occurs within 3-4 h of tetracycline withdrawal, appearance of aggregates and initial losses of culture viability occurs at about 2 days and near complete death occurs by approximately 3 days.

[4] = system: Alzheimer's transgenic mice; test: Toxicity and weight loss in treated Alzheimer's transgenic mice; type: in vivo; settings: 2% phytic acid in drinking water, about six months
Procedure: (§1) Applicant also submits Table 1 and FIGS. 4-6 showing data from in vivo testing of the subject matter compounds in Alzheimer's transgenic mice. These Alzheimer's transgenic mice are genetically altered to produce Abeta plaque, and were treated for about six months with compounds of the Applicant's invention. Namely, the drinking water was infused with phytic acid so that the final concentration of phytic acid in the drinking water was 2%.

Abeta plaque = Abeta plaque in brains of Alzheimer's transgenic mice versus control vehicle; type: in vivo; settings: 2% phytic acid, all three cases (FIGS. 4-6)
Procedure: as §1
After six months, the animals were put down for autopsy and necropsy so that Abeta plaque in the brains was assayed, separated and weighed.
FIGS. 4-6 are graphs comparing the tested compound in vivo with the control vehicle.

[5] = humans, ingestion of large doses; cited from earlier work
[6] = system: transgenic mouse model of Alzheimer's Disease; settings: cited from earlier work
amyloid-B peptide (AB) = settings: transgenic Alzheimer Disease mouse studies; cited from earlier work

O[C@H]1[C@H](O)[C@@H](O)[C@H](O)[C@@H](O)[C@H]1O [myo inositol, reference compound]
rescue from Ab-induced neurotoxicity [1]: rescues
attenuation of APP CTF-induced neurotoxicity (active/inactive) (MC65 cells [2]): inactive

O=P(O)(O)O[C@H]1[C@H](OP(=O)(O)O)[C@@H](OP(=O)(O)O)[C@H](OP(=O)(O)O)[C@@H](OP(=O)(O)O)[C@H]1OP(=O)(O)O [phytic acid, myo-inositol-hexakis (dihydrogen phosphate)]
oxidative stress associated with APP CTF expression (hydrogen peroxide in the cell media) (MC65 cells [3]): suppressed oxidative stress
toxicity in the treated group [4]: no toxicity
weight loss in the treated group [4]: nor any significant weight loss
Abeta plaque compared to the control vehicle (Abeta plaque): reduction in Abeta plaque
physiological discomfort or symptoms of toxicological action [5]: elicits no physiological discomfort or symptoms of any toxicological action
pEC50 (MC65 cells [2]; Homo sapiens, MC65, read-out: EC50 concentration, protection from APP CTF-induced death): ~4.00
protection from cytotoxicity (MC65 cells [2]; MC65 cells, concentrations of 200 μM and higher): near complete protection
attenuation of APP CTF-induced neurotoxicity (active/inactive) (MC65 cells [2]): active

O[C@H]1[C@H](O)[C@@H](O)[C@H](O)[C@@H](O)[C@@H]1O [scyllo inositol]
prevention and reversal of Alzheimer's Disease [6]: prevent and reverse Alzheimer's Disease
aggregation of amyloid-B peptide (AB) (amyloid-B peptide (AB)): inhibits and blocks the aggregation
rescue from Ab-induced neurotoxicity [1]: rescues
attenuation of APP CTF-induced neurotoxicity (active/inactive) (MC65 cells [2]): inactive
